Data published in patent publication US20050171005A1, “Methods and compositions for modulating beta-catenin phosphorylation” (priority 2002, published 2005).

Experiments:
[1] = test system: LB33B1 cells; test: LB33B1 melanoma cell growth, live cell count 24 hours post treatment; format: cell-based; details: increasing concentrations of CKI7, live cells counted 24 hours post treatment
Method: FIG. 10d: Blocking β-catenin phosphorylation in a melanoma cell line affects cell growth. LB33B1 cells were treated with increasing concentrations of the S45 phosphorylation inhibitor CKI7 and live cells were counted 24 hours post treatment. • Abbreviations: U.T., untreated or untransfected; Rel. ce. numb. 24 hrs. po. treat., relative cell numbers 24 hours post-treatment.
(§1) The highly metastatic melanoma cell line LB33B1 (B1) is a derivative of the low grade malignant LB33A1 (A1) cells [Ikeda H. et al., (1997) Immunity 6(2): 199-208]. Both cell lines harbor a similar high content of β-catenin, irrespective of proteasome inhibition, yet the B1 β-catenin is phosphorylated (FIG. 10b). […] To assess the contribution of phosphorylated versus non-phosphorylated β-catenin to the MITF-transcriptional activity, reporter-transfected B1 cells were treated with LiCl, which suppresses GSK3 phosphorylation, or cotrasfected with Dvl-ΔPDZ, which cannot cooperate with Frat1, yet suppresses S45 phosphorylation. […] Abrogating β-catenin phosphorylation in melanoma cells may compromise their growth and indeed, treatment of B1 melanoma cells with CKI7, a small-molecule specific CKI inhibitor, slowed their proliferation (FIG. 10d) along with suppressing the phosphorylation of β-catenin (data not shown).

[2] = test system: β-catenin; format: cell-based, human; details: 293 cells
Method: (§2) 293T cells were transiently transfected using the calcium phosphate procedure. The following expression vectors were used: Myc- or Flag-tagged β-catenin (0.5 μg) (a human β-catenin clone obtained from R. Grosschedl), Flag- or Myc-tagged axin (2 μg) (mouse cDNA provided by F. Costantini), HA-GSK3β or Flag-GSK3β (3.5 μg) (a rabbit clone obtained from J R Woodgett) [Woodgett, J. R. (1990) EMBO J 9: 2431-2438]. β-catenin mutants include DP, (S33, S37, T40, S45, S47 substituted to alanine) single point mutants (S29F, S33Y, S37A, T41A, S45F) and 45PKA (T41S, T42R, A43R). Additional vectors: Flag-WD, a dominant negative β-TrCP fragment (ΔF-box) [Yaron, A. et al. (1998) Nature 396: 590-594]; Flag-Dvl-1 (a mouse cDNA clone obtained from S-I Yanagawa) [Lee, J. S. et al. (1999) J Biol Chem 274: 21464-21470]; WT and dominant negative Xenopus CKIε (XCKIε-D128N) (provided by T. Shcwarz-Romond) [McKay, R. M. et al. (2001) Dev Biol 235: 378-387]. 24-48 hr after transfection, cells were harvested and processed for the various experiments. MG-132 (Sigma) was used at 20 μM for 5 hr; LiCl (40 mM) was added for 6 hr, and CKI-7 (100 μM) for 16 hr prior to harvesting. β-catenin, axin or GSK-30 in cell lysates were detected using anti-Myc (Ab-1, Oncogenes Research Products, 2 μg/ml), anti-Flag (M2, Sigma, 1 μg/ml) and anti-HA (12CA5 ascites fluid; 1:5000) antibodies, respectively. GFP expression was monitored with anti-GFP antibody (JL-8, Clontech, 1 μg/ml). In some experiments (FIG. 4) GSK-3β was detected using anti-GSK-3β monoclonal antibodies (clone 7, Transduction Laboratories, 0.1 μg/ml). Endogenous and exogenous β-catenin (FIGS. 5d and 6a) were detected with anti-β-catenin antibodies (clone 14, Transduction Laboratories) (0.25 μg/ml).
Western blot and mass spectrometry (MS). Three different commercial anti-β-catenin phospho-peptide antibodies were used: i) Anti-phospho-Thr41/Ser 45 (Cell Signaling Technology), a polyclonal antibody specific for both pT41 and pS45 (otp41,45). ii) Anti-phospho-Ser33/37/Thr41 (Cell Signaling Technology), a polyclonal antibody recognizing pS33 (αp33). These two polyclonal antibodies were used at a 1:1000 dilution, according to the manufacturer's instructions. iii) anti-phospho-Ser 33/37 (BC-22, Sigma), a monoclonal antibody specific for pS37 (used as ascites fluid at a 1:3000 dilution; αp37). Antibody specificities were determined by phosphopeptide inhibition studies. D^32S(PO4)GIHSGATTTAPS^45 abolished the αp33, but not the αp37 signal; D^32SGIHS(PO4)GATTTAPS^45 blocked the αp37 but not the αp33 signal. […] Proteins for MS analysis were immunopurified by M2 Flag-affinity beads (Sigma), separated by SDS-PAGE, Coomassie stained and the β-catenin bands were in-gel digested with endoproteinase Asp-N. The resulting peptides were desalted on small columns, eluted with 20% MeOH, 5% HCOOH, and analyzed by nanoelectrospray mass spectrometry [Yaron et al. (1998) id ibid.], using a quadrupole time-of-flight mass spectrometer (PE-Sciex, Canada).
GSK-3β is traditionally known to target the phosphorylation of +4P-primed substrates [Frame, S. et al. (2001) Mol Cell 7: 1321-1327], a specificity supported by recent structural studies of the enzyme [Dajani, R. et al (2001) Cell 105: 721-732]. The fact that the S45 phosphorylation site is not preceded by a +4P priming site led to the proposition that the molecular complex of axin and GSK-3β is capable of bypassing the priming requirement of the uncomplexed enzyme [Cohen and Frame (2001) id ibid.]. To assess the contribution of GSK-30 in axin-mediated S45 phosphorylation, two types of experiments were carried out. In the first set, 293 cells were incubated prior to harvesting with LiCl, a GSK-3β inhibitor capable of mimicking a Wnt effect [Klein, P. S. and D. A. Melton (1996) Proc Natl Acad Sci USA 93: 8455-8459; Stambolic, V. et al. (1996) Curr Biol 6: 1664-1668].

[3] = test system: β-catenin; test: β-catenin phosphorylation in B1 melanoma cells; format: cell-based; details: data not shown
Method: as §1

[4] = test system: endogenous β-catenin; test: Phosphorylation of endogenous β-catenin in proteasome-inhibited HeLa cells with kinase inhibitors; format: cell-based; details: CKI-7 100 μM; for S33 phosphorylation of endogenous β-catenin: LiCl 40 mM
Method: FIG. 5d: Effects of specific kinase inhibitors on the phosphorylation of endogenous β-catenin at S41,45 and S33 in HeLa cells. CKI-7 was used at 100 μM, H89 at 5 μM and LiCl at 40 mM. β-catenin was detected with anti-β-catenin antibody, or anti-phospho-p-catenin antibodies.
as §2
Western blot and mass spectrometry (MS). Three different commercial anti-β-catenin phospho-peptide antibodies were used: i) Anti-phospho-Thr41/Ser 45 (Cell Signaling Technology), a polyclonal antibody specific for both pT41 and pS45 (otp41,45). ii) Anti-phospho-Ser33/37/Thr41 (Cell Signaling Technology), a polyclonal antibody recognizing pS33 (αp33). […] Antibody specificities were determined by phosphopeptide inhibition studies. […]
In another set of experiments the in vivo role of CKI in S45 phosphorylation was analyzed, using two dominant negative CKIε constructs (dnXCKIε K85R and D128N) [McKay et al. (2001) id ibid.] and a specific CKI inhibitor (CKI-7) [Chijiwa, T. et al. (1989) J Biol Chem 264: 4924-4927]. […]

[5] = test system: MITF-M promoter; test: pGL3-MITF/M luciferase reporter assay in LB33B1 melanoma cells; format: cell-based; details: reporter-transfected B1 (LB33B1) cells; 20 mM LiCl for 24 hours
Method: FIG. 10c: MITF transcriptional activity requires β-catenin phosphorylation. The two related melanoma cell lines LB33A1 and LB33B1 were transfected with the pGL3-MITF/M luciferase reporter plasmid [Takeda et al. (2000) J Biol Chem 275: 14013-6] alone or together with DvlΔPDZ expression plasmid. 24 hours after transfection, one sample of cells was treated with 20 mM LiCl for 24 hours, as indicated. Cells were harvested and their lysate luciferase activity was determined using Promega's Luciferase Assay System. MITF-M transcriptional activity is expressed in Relative Luciferase Units (RLU). A TCF mutant-site reporter (pGL3-MITF/M195.3) was used to control TCF-independent transcription.
Cells were transfected with the TOPFLASH or pGL3-MITF/M luciferase reporter plasmids [Korinek et al., (1997) Science, 275: 1752-3; Takeda et al. (2000) J. Biol. Chem. 275: 14013-6] and the relevant expression plasmid combinations. 24 hours after transfection the cells were harvested. Luciferase activity was determined in the cells' lysate using Promega's Luciferase Assay System. The transcription activity is expressed in Relative Luciferase Units (RLU). TCF mutant-site reporters (FOPFLASH and pGL3-MITF/M195.3) were used to control TCF-independent transcriptional transactivation. […]

[6] = MG-132 treated, LiCl 40 mM for 6 hr

Compound | proliferation of B1 melanoma cells [1] | axin-induced p45 signal of wt β-catenin ([2]; CKI-7 100 μM for 16 hr) | constitutive S45 phosphorylation of 45PKA β-catenin ([2]; CKI-7 100 μM for 16 hr, H89 data not shown) | phosphorylation of β-catenin [3] | S45/T41 phosphorylation of endogenous β-catenin [4] | S33 phosphorylation of endogenous β-catenin [4] | MITF promoter activity [5] | S45 phosphorylation of T41A mutated β-catenin ([2]; MG-132 treated, LiCl 40 mM) | axin-induced S33/37 phosphorylation of wt β-catenin [2, 6] | axin-induced T41/S45 phosphorylation signal of wt β-catenin [2, 6] | MS analysis of S45 peptides, treated versus non-treated cells ([2]; data not shown)
NCCNS(=O)(=O)c1ccc(Cl)c2ccncc12 [CKI-7] | slowed | diminished | did not affect | suppressing | suppressed | suppressed |  |  |  |  | 
[Cl-].[Li+] [LiCl] |  |  |  |  |  | exclusively blocked | inhibition | no effect | abolished | minimally affected | no difference
